Source: US20230030847A1, “ANTI-MICROBIAL SULFONAMIDE PHARMACEUTICAL COMPOSITIONS FOR EXTERNAL USE” (priority 2021, published 2023)

How the values were obtained:
[1] = tested on: skin of guinea pigs; conditions: guinea pig, in vivo
Protocol: Next, 10 guinea pigs were used to test for delayed dermal contact sensitization according to ISO 10993-10, Part 10. A wet gauze patch (25 mm×25 mm) treated with 20% BENZ was applied to the intact skin of each guinea pick for six hours (±30 minutes), three times a week, over a three-week period for a total of nine applications. After a two-week recovery period, the gauze patch was applied again. The skin was then observed for evidence of dermal reaction at 24 and 48 hours after patch removal. […] This test was performed a total of three times with different guinea pigs, and the same results were obtained each time.

[2] = tested on: skin of rabbits; test: primary skin irritation according to ISO 10993-10, Part 10; type: in vivo, rabbit; conditions: abraded skin, gauze patches treated with 20% BENZ for 24 hours, observed 1, 24, 48 and 72 hours after patch removal
Protocol: Next, three rabbits were used for evaluation of primary skin irritation according to ISO 10993-10, Part 10. Two wet gauze patches (25 mm×25 mm) treated with 20% BENZ were applied to the skin of each rabbit in different locations. Each application site was abraded with four parallel epidermal abrasions prior to application of the treated gauze patch. The treated gauze was secured in place for 24 hours, then removed. The skin was then observed for erythema and edema at 1, 24, 48, and 72 hours after patch removal.

[3] = tested on: Aspergillus brasiliensis; test: impregnated test swatch kill test; type: cell-based; conditions: swatches impregnated with 2.5% BENZ; within 1 hour
Protocol: (§1) Test swatches which had been impregnated with 2.5% BENZ were exposed to Staphylococcus aureus, Pseudomonas aeruginosa, and Aspergillus brasiliensis. A stack of two swatches was placed in a petri dish and then inoculated with 1.000 mL of an inoculum for one of the microorganisms. Following inoculation, the petri dishes were sealed and placed in a plastic bag/container, then incubated at optimal conditions for the given microorganism. Swatches were harvested at 0, 10 minutes, 30 minutes, 1 hour, and 6 hours after inoculation. At harvesting, the swatch was transferred to a neutralization media, then vortex mixed for 1-2 minutes. The neutralization suspension was […] and plated for 18-24 hours for bacteria and 24-72 hours for fungi at optimal incubation conditions.

[4] = tested on: Staphylococcus aureus; test: impregnated test swatch kill test; type: cell-based; conditions: swatches impregnated with 2.5% BENZ; within 30 minutes
Protocol: as §1

[5] = tested on: Pseudomonas aeruginosa; test: impregnated test swatch kill test; type: cell-based; conditions: swatches impregnated with 2.5% BENZ; within 10 minutes
Protocol: as §1

[6] = tested on: bovine corneas; test: bovine corneal opacity and permeability (BCOP) test for ocular irritation; conditions: 0.75 mL of 20% BENZ solution, 10 minutes exposure, three bovine corneas
Protocol: A bovine corneal opacity and permeability (BCOP) test was performed to determine the potential for ocular irritation.
Each dissected cornea was mounted in a holder that separated into anterior and posterior chambers. The two chambers were filled with a MEM solution, and an opacitometer was used to measure the opacity of the cornea. Next, the MEM solution was removed from the anterior chamber, and the epithelium of three bovine corneas were exposed to 0.75 mL of a 20% BENZ solution for 10 minutes in a manner that covered the entire cornea. The two chambers were then rinsed and refilled with fresh MEM solution. The corneas were then incubated at 32° C. for two hours, and the two chambers were again rinsed and refilled with fresh MEM solution. The opacity was measured again. The MEM solution was then removed from the anterior chamber and the anterior chamber was filled with 1.0 mL of 0.4% sodium fluorescein in Dulbecco's phosphate-buffered saline. After 90 minutes, the fluid in the posterior chamber was removed and the amount of dye that passed through the cornea was measured as the optical density at 490 nm by spectrophotometer. The In Vitro Irritancy Score (IVIS) was calculated to be −0.67, which is a perfect score.

[7] = stability study of BENZ solution; type: physicochemical
Protocol: A stability study was conducted. A BENZ solution was stored for 14 days at 54° C. At Day 0, the samples contained an average of 20.26% BENZ. At Day 14, the samples contained an average of 19.97% BENZ.

[8] = tested on: Influenza A virus, A/PR/8/34 strain, ATCC VR-1469; type: cell-based; conditions: filter medium impregnated with 2.5% BENZ; similar experiment (contact time 30 minutes)
[9] = tested on: Rhinovirus 37, 151-1 strain, ATCC VR-1607; test: impregnated filter medium virucidal test (TCID50 in MRC-5 cells); type: cell-based; conditions: filter medium impregnated with 2.5% BENZ; contact time 30 minutes, 24.7-24.9° C., 39.9-40.5% relative humidity
Protocol: Next, a filter medium impregnated with 2.5% BENZ was exposed to a 0.200 mL volume of Rhinovirus 37, 151-1 strain, ATCC VR-1607 for a contact time of 30 minutes at 24.7-24.9° C. and 39.9-40.5% relative humidity. After 30 minutes, the filter medium was transferred to a neutralization medium and vortexed for at least 15 seconds. A 0.1 mL aliquot was removed and a series of 10-fold dilutions was performed in 0.9 mL aliquots of test medium. Each dilution was inoculated into MRC-5 cells. Viral titer was then calculated.

[10] = tested on: Candida auris; test: impregnated test swatch kill test; type: cell-based; conditions: stack of four swatches impregnated with 2.5% BENZ; within 1 hour
[11] = tested on: rats; test: single-dose oral gavage toxicity in rats; type: in vivo; conditions: single gavage dose of liquid containing 20% BENZ, 5 g/kg body weight
From the text: Five rats (Rattus norvegicus) weighing 244 to 272 grams were gavaged with a single dose of liquid containing 20% N-chloro-4-carboxybenzenesulfonamide (BENZ) at a dosage of 5 g/kg body weight.

Compound: O=C(O)c1ccc(S(=O)(=O)NCl)cc1 [BENZ, N-chloro-4-carboxybenzenesulfonamide]
- delayed dermal contact sensitization [1]: No evidence was found of delayed dermal contact sensitization
- erythema and edema [2]: no erythema or edema observed
- kill [3]: 99.9%
- kill [4]: 99.999%
- kill [5]: 99.999%
- In Vitro Irritancy Score (IVIS) [6]: −0.67
- average BENZ content of samples ([7]; Day 0, BENZ solution): 20.26%
- average BENZ content of samples ([7]; Day 14, stored at 54° C.): 19.97%
- reduction in viral titer [8]: > 100%
- reduction in viral titer [9]: > 99.997%
- kill [10]: 99.998%
- survival after seven days [11]: all five rats were still alive
